US7115621B2, “Chemical compounds” (Lilly Icos LLC, priority 2001, dated 2006)

Tests used:
recombinant human PDE5 = recombinant human PDE5 (Homo sapiens, UniProt O76074); assay: Inhibitory effect on cGMP-PDE, one-step assay, human recombinant PDE5; type: biochemical; settings: Table 1, Examples
Method: The compounds of structural formula (I) were tested for an ability to inhibit PDE5. The ability of a compound to inhibit PDE5 activity is related to the IC50 value for the compound, i.e., the concentration of inhibitor required for 50% inhibition of enzyme activity. The IC50 value for compounds of structural formula (I) were determined using recombinant human PDE5.
Recombinant production of human PDE1B, PDE2, PDE4A, PDE4B, PDE4C, PDE4D, PDE5, and PDE7 was carried out similarly to that described in Example 7 of U.S. Pat. No. 5,702,936, incorporated herein by reference, except that the yeast transformation vector employed, which is derived from the basic ADH2 plasmid described in Price et al., Methods in Enzymology, 185, pp. 308–318 (1990), incorporated yeast ADH2 promoter and terminator sequences and the Saccharomyces cerevisiae host was the protease-deficient strain BJ2-54 deposited on Aug. 31, 1998 with the American Type Culture Collection, Manassas, Virginia, under accession number ATCC 74465. Transformed host cells were grown in 2×SC-leu medium, pH 6.2, with trace metals, and vitamins. After 24 hours, YEP medium-containing glycerol was added to a final concentration of 2×YET/3% glycerol. Approximately 24 hr later, cells were harvested, washed, and stored at −70° C.
Phosphodiesterase activity of the preparations was determined as follows. PDE assays utilizing a charcoal separation technique were performed essentially as described in Loughney et al. (1996). In this assay, PDE activity converts [32P]cAMP or [32P]cGMP to the corresponding [32P]5′-AMP or [32P]5′-GMP in proportion to the amount of PDE activity present. The [32P]5′-AMP or [32P]5′-GMP then was quantitatively converted to free [32P]phosphate and unlabeled adenosine or guanosine by the action of snake venom 5′-nucleotidase. […] The assay was performed at 30° C. in a 100 μL reaction mixture containing (final concentrations) 40 mM Tris HCl (pH 8.0), 1 μM ZnSO4, 5 mM MgCl2, and 0.1 mg/mL bovine serum albumin (BSA). PDE enzyme was present in quantities that yield <30% total hydrolysis of substrate (linear assay conditions). The assay was initiated by addition of substrate (1 mM [32P]cAMP or cGMP), and the mixture was incubated for 12 minutes. Seventy-five (75) μg of Crotalus atrox venom then was added, and the incubation was continued for 3 minutes (15 minutes. total). The reaction was stopped by addition of 200 μL of activated charcoal (25 mg/mL suspension in 0.1 M NaH2PO4, pH 4). After centrifugation (750×g for 3 minutes) to sediment the charcoal, a sample of the supernatant was taken for radioactivity determination in a scintillation counter and the PDE activity was calculated.
Cell pellets (29 g) were thawed on ice with an equal volume of Lysis Buffer (25 mM Tris HCl, pH 8, 5 mM MgCl2, 0.25 mM DTT, 1 mM benzamidine, and 10 μM ZnSO4). Cells were lysed in a Microfluidizer® (Microfluidics Corp.) using nitrogen at 20,000 psi. The lysate was centrifuged and filtered through 0.45 μm disposable filters. The filtrate was applied to a 150 mL column of Q SEPHAROSE® FastFlow (Pharmacia). The column was washed with 1.5 volumes of Buffer A (20 mM Bis-Tris Propane, pH 6.8, 1 mM MgCl2, 0.25 mM DTT, 10 μM ZnSO4) and eluted with a step gradient of 125 mM NaCl in Buffer A followed by a linear gradient of 125–1000 mM NaCl in Buffer A. Active fractions from the linear gradient were applied to a 180 mL hydroxyapatite column in Buffer B (20 mM Bis-Tris Propane (pH 6.8), 1 mM MgCl2, 0.25 mM DTT, 10 μM ZnSO4, and 250 mM KCl). After loading, the column was washed with 2 volumes of Buffer B and eluted with a linear gradient of 0–125 mM potassium phosphate in Buffer B. Active fractions were pooled, precipitated with 60% ammonium sulfate, and resuspended in Buffer C (20 mM Bis-Tris Propane, pH 6.8, 125 mM NaCl, 0.5 mM DTT, and 10 μM ZnSO4). The pool was applied to a 140 mL column of SEPHACRYL® S-300 HR and eluted with Buffer C. Active fractions were diluted to 50% glycerol and stored at −20° C. […]

PDE5 (bovine aorta) = biological target: T1, PDE5 (bovine aorta) (Bos taurus, UniProt Q28156); assay: Inhibitory effect on cGMP-PDE, one-step assay, enzyme from bovine aorta; type: biochemical; settings: Table 1, Examples; footnote 1) vs. bovine aorta
T1 construct: from tissue; host or cells: bovine aorta

CN(C)C(=O)[C@H]1Cc2c([nH]c3ccccc23)[C@@H](c2ccc3c(c2)OCO3)N1C(=O)/C=C/c1ccccc1 [Example 1, (1R,3R)-1-benzo[1,3]dioxol-5-yl-2-(3-phenylacryloyl)-2,3,4,9-tetrahydro-1H-β-carboline-3-carboxylic acid dimethylamide] showed an IC50 (recombinant human PDE5) of 0.044 µM and a melting point of 175 to 178 °C.
COC(=O)[C@H]1Cc2c([nH]c3ccccc23)[C@@H](c2ccc3c(c2)OCO3)N1C(=O)Oc1ccc([N+](=O)[O-])cc1 [Example 3, (−)-(1R,3R)-1-Benzo[1,3]dioxol-5-yl-1,3,4,9-tetrahydro-beta-carboline-2,3-dicarboxylic acid 3-methyl ester 2-(4-nitrophenyl)ester] gave an IC50 (recombinant human PDE5) of 0.241 µM and a melting point of 175 to 187 °C.
For CCCCNC(=O)N1[C@@H](c2cccnc2)c2[nH]c3ccccc3c2C[C@H]1C(=O)OCC [Example 4], the IC50 (PDE5 (bovine aorta)) was 0.2 µM.
COC(=O)CN1[C@@H](c2ccc(OC)cc2)c2[nH]c3ccccc3c2C[C@H]1C(=O)NCc1ccccc1 [Example 5] showed an IC50 (PDE5 (bovine aorta)) of 0.49 µM.
Compound COC(=O)[C@@H]1Cc2c([nH]c3ccccc23)[C@H](c2ccc3c(c2)OCO3)N1C [Example 6] has an IC50 (recombinant human PDE5) of 0.23 µM.
COc1ccc([C@@H]2c3[nH]c4ccccc4c3C[C@@H](C(=O)NCc3ccccc3)N2C(C)=O)cc1 [Example 7] gave an IC50 (PDE5 (bovine aorta)) of 1 µM.
With CCCNC(=O)[C@H]1Cc2c([nH]c3ccccc23)[C@@H](c2ccc3c(c2)OCO3)N1C(C)=O [Example 8, (1R)-(+)-2-acetyl-1-benzo[1,3]dioxol-5-yl-2,3,4,9-tetrahydro-1H-β-carboline-3-carboxylic acid propylamide] the IC50 (recombinant human PDE5) was 0.502 µM and the melting point was 163 to 165 °C.
CC(=O)N1[C@H](c2ccc3c(c2)OCO3)c2[nH]c3ccccc3c2C[C@@H]1C(=O)N1CCOCC1 [Example 9, (1R)-(+)-1-[benzo[1,3]dioxol-5-yl-3-(morpholine-4-carbonyl)-1,3,4,9-tetrahydro-β-carbolin-2-yl]-ethanone] gave an IC50 (recombinant human PDE5) of 0.261 µM.
CCCCNC(=O)[C@H]1Cc2c([nH]c3ccccc23)[C@@H](c2ccc3c(c2)OCO3)N1C(=O)/C=C/c1ccccc1 [Example 11, (1R,3R)-(+)-1-benzo[1,3]dioxol-5-yl-2-(3-phenylacryloyl)-2,3,4,9-tetrahydro-1H-β-carboline-3-carboxylic acid butylamide] gave an IC50 (recombinant human PDE5) of 0.629 µM and a melting point of 114 to 117 °C.
Compound CNC(=O)[C@H]1Cc2c([nH]c3ccccc23)[C@@H](c2ccc3c(c2)OCO3)N1C(=O)/C=C/c1ccccc1 [Example 12] has an IC50 (recombinant human PDE5) of 0.03 µM.
Compound CNC(=O)[C@H]1Cc2c([nH]c3ccccc23)[C@@H](c2ccc3c(c2)OCO3)N1C(=O)/C=C/c1ccc(Cl)cc1 [Example 13] has an IC50 (recombinant human PDE5) of 0.42 µM.
